# Patent US10814010B2, “FOXC2 inhibitor and methods of use thereof” (The Board of Regents of The University of Texas System, priority 2018, dated 2020)
# Legend:
# Assay type in all cases: cell-based
# MCF-7 cells = assay: MTT cell viability assay, MCF-7; conditions: MCF-7, MTT, very low FOXC2 expression
# Experimental: It was hypothesized that the specific binding of MC-1-F2 can lead to its specific cellular activity against cancer cells with high FOXC2 expression. This hypothesis was tested by evaluating MC-1-F2's cellular activity on cell lines with different FOXC2 expression levels: MCF-7, BT549, and MDA-MB-231. […] However, further studies are still underway. The specificity in cellular activity of MC-1-F2 was further evaluated in the form of a soft-agar colony forming assay to determine if MC-1-F2 was able to inhibit in vitro tumorigenicity of cancer cells in a FOXC2 expression-dependent manner. […] Further testing is underway in various breast cancer cell lines with different FOXC2 expression levels.
# Cell viability was assessed by MTT (3-(4,5-Dimethylthiazol-2-yl)-2,5-Diphenyltetrazolium Bromide) assay. 1×10^4 cells were seeded on 48-well cell culture plate, and were incubated for at least 24 hours prior to drug treatment. The MTT reagent (Fisher Scientific) was added to the culture medium 3 hours prior to the end of compound incubation. The reaction took place in the 37° C. incubator with 5% CO2 for 3 hours. Cell culture medium was then removed from the wells. Cells with the insoluble purple formazan were lysed with DMSO for 10 mins at room temperature, 0.5 ml per well. The solution was aliquot to 96-well plate for absorbance reading at 570 nm using a plate reader.
# PC3 cells = assay: Western blot of EMT, CSC markers and AR in PC3; conditions: PC3, 20 μM, 48 hours
# From the text: (§1) Due to our interest in CRPC the cell lines DU145 and PC3 were chosen due to their chemoresistance to high concentrations of enzalutamide, androgen independence, and relatively high expression of FOXC2 (FIGS. 30A&B). First, the effect of MC-1-F2 on the inhibition of EMT markers was examined (FIGS. 26A-G). […] The variability in E-cadherin expression can be due to a different mode of action the ligand MC-1-F2 is having on prostate cancer cells, possibly a time dependent effect of the ligand.
# (§2) After confirmation of the ligand's ability to block EMT, the ligand's ability to decrease cancer stem cell (CSC) characteristics was determined. CRPC is plagued by a higher ratio of CSC to normal prostate cells, leading to the acquired characteristics of higher proliferative and self-renewal capabilities (Yun et al., 2016). CSC markers, Nanog, C-myc and KLF4, were examined.
# (§3) 50 μg of total protein per sample was incubated with 4× loading buffer at 100° C. for 5 min. Protein samples were then loaded into a polyacrylamide gel and subjected to SDS-PAGE. Resolved proteins were then transferred by a wet transfer method to a PVDF membrane at 100 V for 1 hour using a BioRad Mini Trans-Blot Electrophoresis Transfer Cell. Upon the completion of wet transfer, the membrane was then blocked with 5% (w/v) fat-free milk in 1× Tris-buffered saline/0.1% (v/v) Tween-20 (TBS-T) for at least 1 hour. Then incubated with the respective primary antibodies diluted in 5% BSA in 1×TBST at 4° C. overnight. The following day exposed to 1:1000 dilution of anti-mouse […] secondary antibodies in 5% (w/v) fat-free milk in 1×TBS-T for 1 hour at room temperature. The probed proteins were then detected for chemiluminescent signal using SuperSignal Chemiluminescent Substrate (PIERCE). Pierce antibodies: B-actin, and all other antibodies used are from cell signaling.
# DU145 cells = assay: Western blot of EMT, CSC markers and AR in DU145; conditions: DU145, 20 μM, 48 hours
# From the text: as §1, §2, §3
# LNCaP cells = assay: Transwell invasion assay, LNCaP; conditions: androgen-dependent, low FOXC2 expression, 20 μM, 24 hours
# Experimental: Following determination of both inhibition of EMT and CSC properties, the inhibition of the migratory and invasive capabilities of both cell lines following MC-1-F2 treatment was examined through the use of a transwell invasion assay.
# Matrigel invasion chambers (Corning) were allowed to come to room temperature and allowed to rehydrate for 2 hours in a cell incubator. Cells were treated 24 hours prior to assay and starved in 2% FBS in DMEM for 2 hours prior to assay. A cell suspension containing 5×10^4 cells/mL was prepared. Chemoattractant (DMEM+10% FBS) was added to the bottom of the wells. Using forceps, the inserts were transferred inside the wells and 0.5 mL of cell suspension was immediately added. The chambers were incubated for 22 hours in a humidified tissue culture incubator. After the 22 hours, the non-invading cells were removed by scrubbing the surface of the membrane. The cells were fixated with 4% formaldehyde solution for 2 minutes at room temperature. Followed by permeabilization of the membrane with 100% MeOH for 20 minutes at room temperature. The cells were stained with 0.5% crystal violet solution and several images of the wells were then taken and total number of cells counted for analysis.
compound,measurement,setting,value
N=C(N)NCCCCNc1nc(Nc2ccc(Oc3ccccc3)cc2)nc(N2CCN(c3nc(N)nc(Nc4ccc(N5CCOCC5)cc4)n3)CC2)n1 [MC-1-F2],inhibition of cell viability,MCF-7 cells,little inhibition of cell viability
same,AR expression,PC3 cells,no effect on AR expression
same,"CSC markers Nanog, C-myc and KLF4",PC3 cells,significant decreases
same,E-cadherin expression levels,PC3 cells,no recovery in the expression levels of E-cadherin
same,"EMT markers ZEB1, Vimentin, N-cadherin and Slug",PC3 cells,inhibit various EMT markers
same,epithelial marker ZO-1 expression,PC3 cells,recovery of the epithelial marker ZO-1
same,AR expression,DU145 cells,no effect on AR expression
same,"CSC markers Nanog, C-myc and KLF4",DU145 cells,significant decreases
same,E-cadherin expression levels,DU145 cells,recovery of E-cadherin
same,"EMT markers ZEB1, Vimentin, N-cadherin and Slug",DU145 cells,inhibit various EMT markers
same,epithelial marker ZO-1 expression,DU145 cells,recovery of the epithelial marker ZO-1
same,number of invasive cells (transwell invasion),LNCaP cells,saw to change in the number of invasive cells
